Experimental data as given in publication PMC11352108, “Anti-Biofilm and Anti-Inflammatory Properties of the Truncated Analogs of the Scorpion Venom-Derived Peptide IsCT against Pseudomonas aeruginosa” (Antibiotics, 2024).
Where no end group is shown, it is not given here.

Tests used:
sheep red blood cells = experiment: Hemolytic assay; assay type: cell-based; conditions: for Hemolytic activity (in words): sheep erythrocytes, concentrations as high as 150 μM; for % Hemolysis, Exp.1: replicate Exp.1; for % Hemolysis, Exp.2: replicate Exp.2; for % Hemolysis, Exp.3: replicate Exp.3
Experimental: A hemolytic assay was carried out according to the previously described method using commercially sourced sheep red blood cells (Professional Nanomed Company Limited, Bangkok, Thailand). One hundred microliters of a 2% sheep red blood cell suspension prepared in phosphate-buffered saline (PBS) pH 7.4. was incubated for 1 h at 37 °C with 100 μL of the studied peptides (final concentration of 150 µM). After centrifugation at 1000× g for 5 min, 100 μL of supernatant was transferred to new 96-well plates, and the release of hemoglobin was monitored, measuring an optical density (OD) at 405 nm using a BioTek Synergy HT microplate reader. Red blood cells treated with PBS pH 7.4 were used as a negative control, while those treated with 1% Triton X-100 were used as a positive control. The percent hemolysis was calculated as follows:(1) % Hemolysis=OD405 nm of the test peptide−OD405 nm of negative control/OD405 nm of positive control−OD405 nm of negative control × 100

[1] = system: P. aeruginosa PAO1 biofilms; experiment: Biofilm susceptibility assay (crystal violet); assay type: cell-based, Pseudomonas aeruginosa; conditions: 150 μM, 24 h, 37 °C; for Decrease in P. aeruginosa biofilm biomass: 10^6 CFU/mL, OD 550 nm, compared with untreated control
Experimental: The effect of the truncated IsCT analogs on biofilms of P. aeruginosa was assessed using a method that was described previously. Briefly, 100 μL of the test peptides (final concentration, 150 μM) was added to each well of a 96-well microtiter plate (Nunc^TM, Roskilde, Denmark). Then, an aliquot of P. aeruginosa PAO1 culture was added to each well to obtain a final concentration of 10^6 CFU/mL. The bacterial culture alone was included as an untreated control. Following a 24-h incubation at 37 °C, unattached planktonic cells were discarded, and the wells were carefully washed twice with PBS with a pH of 7.4. Thereafter, biofilm biomasses were quantified by 0.1% crystal violet staining. After excess stains were discarded, the wells were washed with PBS pH 7.4 and left to air dry for 2 h at 37 °C. The biofilm biomass was subsequently dissolved by the addition of 30% acetic acid, and the plates were spectrophotometrically read at 550 nm using a BioTek Synergy HT microplate reader.

P. aeruginosa biofilm = conditions: at 4 μM; cited from earlier work
Text: We next determined the anti-biofilm potentials of the truncated IsCT analogs against biofilms formation of P. aeruginosa. […] Antibacterials with growth-inhibitory activity may accelerate the evolutionary pressure and ultimately lead to troublesome antibiotic resistance.

[2] = sheep red blood cells, 1 h, 37 °C, peptides 150 μM (Triton X-100 1%)

ILGKIGIKSLF [IsCT-Δ6-7]
Hemolytic activity (in words) (sheep red blood cells): decreased hemolytic activity
% Hemolysis, Exp.1 (sheep red blood cells; [2]): 0.00%
% Hemolysis, Exp.2 (sheep red blood cells; [2]): 0.0473%
% Hemolysis, Exp.3 (sheep red blood cells; [2]): 2.44%
Decrease in P. aeruginosa biofilm biomass [1]: 28.27%

ILGKIKSLF [IsCT-Δ6-9]
Hemolytic activity (in words) (sheep red blood cells): decreased hemolytic activity
% Hemolysis, Exp.1 (sheep red blood cells; [2]): 0.38%
% Hemolysis, Exp.2 (sheep red blood cells; [2]): 0.00%
% Hemolysis, Exp.3 (sheep red blood cells; [2]): 1.03%
Decrease in P. aeruginosa biofilm biomass [1]: 26.45%

ILGKIWIKSLF [IsCT-Δ7-8]
Hemolytic activity (in words) (sheep red blood cells): decreased hemolytic activity
% Hemolysis, Exp.1 (sheep red blood cells; [2]): 0.25%
% Hemolysis, Exp.2 (sheep red blood cells; [2]): 2.48%
% Hemolysis, Exp.3 (sheep red blood cells; [2]): 3.66%
Anti-biofilm activity (in words) [1]: less pronounced

ILGKIWKSLF [IsCT-Δ7-9]
Hemolytic activity (in words) (sheep red blood cells): decreased hemolytic activity
% Hemolysis, Exp.1 (sheep red blood cells; [2]): 0.18%
% Hemolysis, Exp.2 (sheep red blood cells; [2]): 0.00%
% Hemolysis, Exp.3 (sheep red blood cells; [2]): 1.13%
Anti-biofilm activity (in words) [1]: less pronounced

Triton X-100 [reference compound]
% Hemolysis (sheep red blood cells; 2% sheep red blood cells in PBS pH 7.4, 1 h, 37 °C, peptides 150 μM (Triton X-100 1%, positive control), OD 405 nm, mean ± SEM of independent experiments): 100.00 ± 0.00%
% Hemolysis, Mean (sheep red blood cells; sheep red blood cells, 1 h, 37 °C, peptides 150 μM (Triton X-100 1%), mean of 3 experiments (supplement)): 100.00%
% Hemolysis, Exp.1 (sheep red blood cells; [2]): 100.00%
% Hemolysis, Exp.2 (sheep red blood cells; [2]): 100.00%
% Hemolysis, Exp.3 (sheep red blood cells; [2]): 100.00%

β-defensin 2: an AMP, human beta-defensin 2 (GIGDPVTCLKSGAICHPVFCPRRYKQIGTCGLPGTKCCKKP; ends and bridges not checked; cysteine pairing not given here; UniProt O15263 24-64, looked up)
Inhibition of P. aeruginosa biofilm production (P. aeruginosa biofilm): 40%
